Measurements from publication PMC4740973 (Bioconjugate chemistry, 2015).
Like-named read-outs stand apart in the source and are kept apart here.

Assays:
MMP-9 = MMP-9 (Mus musculus, UniProt P41245); experiment: Peptide cleavage by recombinant MMP-9; assay type: biochemical; conditions: prinomastat added to prodrug with MMP-9, similar conditions (Figure S1)
[1] = cited from earlier work

Sequence of MMP-9 (P41245 108-730): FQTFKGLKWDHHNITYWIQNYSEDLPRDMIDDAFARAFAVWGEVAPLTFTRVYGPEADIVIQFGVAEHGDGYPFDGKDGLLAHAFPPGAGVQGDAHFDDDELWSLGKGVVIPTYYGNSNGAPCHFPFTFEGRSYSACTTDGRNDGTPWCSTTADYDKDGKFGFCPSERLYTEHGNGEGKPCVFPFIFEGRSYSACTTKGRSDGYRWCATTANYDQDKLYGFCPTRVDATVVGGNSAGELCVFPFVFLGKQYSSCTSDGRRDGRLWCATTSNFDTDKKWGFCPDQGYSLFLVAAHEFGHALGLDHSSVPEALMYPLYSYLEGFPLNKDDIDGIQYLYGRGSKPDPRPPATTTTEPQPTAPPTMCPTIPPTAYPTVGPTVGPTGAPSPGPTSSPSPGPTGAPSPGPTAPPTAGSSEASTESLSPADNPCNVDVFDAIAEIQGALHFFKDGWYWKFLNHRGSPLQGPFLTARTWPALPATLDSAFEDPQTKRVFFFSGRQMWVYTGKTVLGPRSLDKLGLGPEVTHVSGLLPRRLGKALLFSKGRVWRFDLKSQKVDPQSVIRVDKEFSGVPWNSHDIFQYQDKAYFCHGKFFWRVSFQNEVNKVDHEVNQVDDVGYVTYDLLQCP

SMILES	effect on prodrug cleavage by MMP-9 (MMP-9)	plasma half-life ([1]; free melittin)	plasma half-life ([1]; melittin incorporated onto perfluorocarbon nanoparticles)
CC1(C)SCCN(S(=O)(=O)c2ccc(Oc3ccncc3)cc2)[C@H]1C(=O)NO [prinomastat]	prevented cleavage of the prodrug		
CC[C@H](C)[C@H](NC(=O)CN)C(=O)NCC(=O)N[C@@H](C)C(=O)N[C@H](C(=O)N[C@@H](CC(C)C)C(=O)N[C@@H](CCCCN)C(=O)N[C@H](C(=O)N[C@@H](CC(C)C)C(=O)N[C@H](C(=O)N[C@H](C(=O)NCC(=O)N[C@@H](CC(C)C)C(=O)N1CCC[C@H]1C(=O)N[C@@H](C)C(=O)N[C@@H](CC(C)C)C(=O)N[C@H](C(=O)N[C@@H](CO)C(=O)N[C@@H](Cc1c[nH]c2ccccc12)C(=O)N[C@H](C(=O)N[C@@H](CCCCN)C(=O)N[C@@H](CCCNC(=N)N)C(=O)N[C@@H](CCCCN)C(=O)N[C@@H](CCCNC(=N)N)C(=O)N[C@@H](CCC(N)=O)C(=O)N[C@@H](CCC(N)=O)C(N)=O)[C@@H](C)CC)[C@@H](C)CC)[C@@H](C)O)[C@@H](C)O)C(C)C)C(C)C [melittin, Melittin]		24 min	over 300 minutes
